The text below walks through data of patent publication US10280170B2, “Substituted 4,5,6,7-tetrahydro-pyrazolo[1,5-a]pyrazine derivatives and 5,6,7,8-tetrahydro-4H-pyrazolo[1,5-a][1,4]diazepine derivatives as Ros1 inhibitors” (Janssen Pharmaceutica NV, priority 2014, dated 2019).

A value given as a limit tells only on which side of the number the result lay.

The subject of data set [1] is Ros pY2274 in HCC78 cells. Put plainly: pROS1 immunofluorescence assay in HCC78 cells. Format: cell-based. The conditions noted are these: Homo sapiens, HCC78, 4 h, read-out: HCC78-pRos1 pIC50 (converted). The method in brief: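 HCC78 NSCLC cells treated with compound for 4 h at 37 °C, then fixed and immunostained for ROS1 pY2274 (Alexa Fluor 680, read at 700 nm). Total ROS1 stained in parallel (IRDye800cw, 800 nm) and used to normalize phospho signal.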

The subject of data set [2] is Ba/F3 cells containing Ros1 wild-type protein + IL-3. Kind of data set: Ba/F3-Ros1 cell proliferation counter-screen, wild-type protein in the presence of 10 ng/ml murine IL-3. The conditions noted are these: Mus musculus, BaF3, 24 h, read-out: BaF3-ROS1 + IL3 pIC50 (converted). It counts as cell-based. Summed up: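 Ba/F3 cells expressing wild-type Ros1, 20000 per well in RPMI-1640 with 10% FBS, cultured with compounds for 24 h at 37 °C with 10 ng/ml murine IL-3. Alamar Blue (resazurin) then added for 4 h. Fluorescence read at ex 540/em 590 nm.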
A general note: A counterscreen serves to expose hits that act by an unwanted route or on another target.

What is called melting point is the temperature, or range, at which the solid turns liquid.

For `CC(C)c1ccc(COc2ccc(-c3c(-c4ccncc4)nn4c3C(=O)NCC4)cc2)cc1` [Compound 1], in data set [1], the IC50 is 25.1 nM. The CC50 in data set [2] is more than 10000 nM.

`CC(C)c1ccc(COc2ccc(-c3c(-c4ccncc4)nn4c3C(=O)N(CCO)CC4)cc2)cc1` [Compound 2]: the melting point is 181 °C. Also, the IC50 in data set [1] is 25.1 nM. In data set [2], the CC50 was more than 10000 nM.
